# Assay results: article PMC10156173, “GUN4 appeared early in cyanobacterial evolution” (PNAS Nexus, 2023)
# Tests used:
# [1] = molecular target: T1, CrGUN4 (Chlamydomonas GUN4) (Chlamydomonas reinhardtii, UniProt A8I5N5, N219G); assay: absorption spectrum of purified protein co-expressed with PCB biosynthesis in E. coli; details: TKKG buffer (25 mM TES-KOH pH 7.8, 100 mM KCl, 10% glycerol); no PCB binding detected
# T1 construct: gene CHLRE_05g246800v5; in-frame His-tagged fusion in pET28a; expressed in E. coli C41 with pKT271 (PCB biosynthesis); Ni-NTA purified
# T1 sequence (A8I5N5 entry or part of it N219G): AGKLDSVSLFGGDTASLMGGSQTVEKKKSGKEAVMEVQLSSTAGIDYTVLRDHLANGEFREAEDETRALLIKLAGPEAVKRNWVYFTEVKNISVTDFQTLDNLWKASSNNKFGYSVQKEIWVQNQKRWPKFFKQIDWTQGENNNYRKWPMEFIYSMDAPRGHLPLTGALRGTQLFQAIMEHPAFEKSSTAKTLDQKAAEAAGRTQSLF
# [2] = molecular target: T2, CrGUN4 (Chlamydomonas GUN4) (Chlamydomonas reinhardtii, UniProt A8I5N5); assay: as above; type: binding; details: TKKG buffer (25 mM TES-KOH pH 7.8, 100 mM KCl, 10% glycerol); peaks at 368 and 674 nm
# T2 construct: gene CHLRE_05g246800v5; in-frame His-tagged fusion in pET28a; expressed in E. coli C41 with pKT271 (PCB biosynthesis); Ni-NTA purified
# T2 sequence (A8I5N5 entry or part of it): as the sequence (A8I5N5 entry or part of it N219G) above, with G167N counted along it
smiles,measurement,setting,value
CC=C1C(=CC2=NC(=Cc3[nH]c(C=C4NC(=O)C(CC)=C4C)c(C)c3CCC(=O)O)C(CCC(=O)O)=C2C)NC(=O)[C@@H]1C [PCB],bilin absorbance peaks (368 and 674 nm),[1],these peaks are absent in the N219G variant
same,absorption spectrum of purified protein co-expressed with PCB biosynthesis in E.,[2],Wild-type CrGUN4 contains a small amount of bilin as shown by characteristic peaks
